What all share (assay type): cell-based
Test [1] deals with methicillin-resistant Staphylococcus aureus (MRSA) from humans. Kind of test: Antibacterial activity (IC), agar as in Example 8 (Example 19, Table 52). Particulars: 18 h. The protocol:
(§1) The antibacterial action was evaluated by the inhibitory concentration (hereinafter abbreviated as IC) at which propagation of the bacteria cultured at 37°C for 18 hours was inhibited. Inhibition was determined by the turbidity of the medium. The expressions "IC≤100", "≤10", and "≤1" indicate that MIC-equivalent values obtained at the succesive […] dilution of the sample are 100-10 µg/ml, 10-1 µg/ml, and not more than 1 µg/ml, respectively. […] (In the subsequent Examples, the same rule applies correspondingly.) Table 39
(§2) A suitable amount of a sample was dissolved in dimethylsulfoxide (DMSO), after which the resulting solution was diluted with the same amount of sterilized distilled water to prepare a bulk sample of 1,000 µg/ml. Separately, a bacterial liquid for the test (methicillin-resistant Staphylococcus aureus (MRSA) isolated from humans) which had been cultured in Mueller-Hinton broth (product of DIFCO) was prepared and inoculated to a Mueller-Hinton agar (product of DIFCO) containing the sample so that the final inoculation amount of 10^6 CFU/ml was achieved. The final concentrations of the samples were 100, 10, and 1 µg/ml.
(§3) After culturing at 37°C for 18 hours, the antibacterial activity was evaluated in terms of IC in a manner similar to that described in Example 4.
In a manner similar to that described in Example 8, antibacterial activity of a variety of ketonitrile derivatives shown in Table 52 was measured. The bacterium used for the test was methicillin-resistant Staphylococcus aureus (MRSA) from humans.

The test system of test [2] is Streptococcus aureus (TI-1). Kind of test: Antibacterial activity (IC), agar as in Example 8 (Example 16, Table 49). Particulars: 18 h. How it is done: as §1, §2, §3
In a manner similar to that described in Example 8, antibacterial activity of the invention compound was determined. The bacterium used for the test was […] aureus (TI-1).

For test [3], the system named is Staphylococcus aureus (209-P). In words: Antibacterial activity (IC), agar as in Example 8 (Example 15, Table 48). Conditions: 18 h. How it is done: as §1, §2, §3
The bacterium used for the test was Staphylococcus aureus (209-P).

Test [4] concerns Pasteurella multocida (Kobe-6). In words: Antibacterial activity (IC), agar as in Example 8 (Example 17, Table 50). Conditions: 18 h, origin pig. The protocol:
as §1, §2, §3
In a manner similar to that described in Example 8, antibacterial activity of the invention compound was determined. The bacterium used for the test was Pasteurella Kobe-6 (origin: pig, Pasteurella multocida).

In test [5] the test system is Enterococcus from fish. In words: Antibacterial activity (IC), agar as in Example 8, media with 1.5% NaCl, 25°C (Example 20, Tables 53-55). Particulars: for MIC: Enterococcus Seriolicida SE94-002. How it is done: as §1, §2, §3
(§4) In a manner similar to that described in Example 8, antibacterial activity of a variety of ketonitrile derivatives shown in Tables 53-55 was measured. The bacteria used for the test were Enterococcus and Pasteurella from fish. The culture conditions were such that the media contained 1.5% NaCl, and the culture temperature was 25°C.

Test [6] has as its system Pasteurella from fish. The test is described as above. Particulars: for MIC: Pasteurella piscicida KP94-02. The protocol:
as §1, §2, §3, §4

Where [7] appears, read: Enterococcus Seriolicida KG86050.
Setting [8] is: Enterococcus Seriolicida MS89060.
Setting [9] is: Enterococcus Seriolicida MS89064.
Setting [10] is: Enterococcus Seriolicida MS89066.
Where [11] appears, read: Enterococcus Seriolicida MS89068.
Setting [12] is: Enterococcus Seriolicida SE94-001.
Setting [13] is: Enterococcus Seriolicida SE94-003.
Where [14] appears, read: Enterococcus Seriolicida SE94-004.
The mark [15] stands for this setting: Enterococcus Seriolicida SE94-005.

Converted amounts (≈) assume the structure as drawn.

The term MIC denotes the lowest concentration found to suppress growth. Low values mean greater potency, high ones weaker potency. `CC(Oc1cccc(Oc2ccc(C(F)(F)F)cc2Cl)c1)C(=O)C(C#N)c1cccc(Br)c1` (stereo not drawn) [Compound No. 104, 2-(3-bromophenyl)-4-[3-(2-chloro-4-trifluoromethylphenoxy)phenoxy]-3-oxopentanonitrile]: the MIC in test [1] (MRSA strain 891179), in test [1] (MRSA strain 891185), in test [1] (MRSA strain 891187), in test [1] (MRSA strain 891192), in test [1] (MRSA strain 900048) and in test [1] (MRSA strain 900056) was 1 to 10 µg/mL (≈ 1.86 to 18.6 µM) throughout. For the same molecule, the MIC in test [2] was no more than 1 µg/mL; in test [3], no more than 1 µg/mL; in test [4], 1 to 10 µg/mL (≈ 1.86 to 18.6 µM).
Regarding `CC(Oc1cccc(Oc2ccc(C(F)(F)F)cc2Cl)c1)C(=O)C(C#N)c1ccccc1` (stereo not drawn) [Compound No. 105, 4-[3-(2-chloro-4-trifluoromethylphenoxy)phenoxy]-3-oxo-2-phenylpentanonitrile], the minimum inhibitory concentration (MIC) in test [1] (MRSA strain 891179), in test [1] (MRSA strain 891185), in test [1] (MRSA strain 891187), in test [1] (MRSA strain 891192), in test [1] (MRSA strain 900048) and in test [1] (MRSA strain 900056) was 1 to 10 µg/mL (≈ 2.17 to 21.7 µM) in each case. Further, the MIC fell in the range of 1 to 10 µg/mL (≈ 2.17 to 21.7 µM) in test [2]; 1 to 10 µg/mL (≈ 2.17 to 21.7 µM) in test [3]; 1 to 10 µg/mL (≈ 2.17 to 21.7 µM) in test [5]; 10 to 100 µg/mL (≈ 21.7 to 217 µM) in test [6]; 10 to 100 µg/mL (≈ 21.7 to 217 µM) in test [4]. Moreover, the IC in test [5] (Enterococcus Seriolicida HI), in test [5] (setting [7]), in test [5] (setting [8]), in test [5] (setting [9]), in test [5] (setting [10]) and in test [5] (setting [11]) was ≤10 (10-1 µg/ml) in each case. In addition, the IC in test [5] (setting [12]) was ≤10 (10-1 µg/ml); in test [5] (setting [13]), ≤10 (10-1 µg/ml); in test [5] (setting [14]) it was ≤10 (10-1 µg/ml); in test [5] (setting [15]), ≤10 (10-1 µg/ml); in test [6] (Pasteurella piscicida KP94-04), ≤100 (MIC-equivalent values obtained at the succesive 2-fold dilution of the sample are 100-10 µg/ml); in test [6] (Pasteurella piscicida KP94-05), ≤100 (MIC-equivalent values obtained at the succesive 2-fold dilution of the sample are 100-10 µg/ml). The IC in test [6] (Pasteurella piscicida KP94-06) was ≤100 (MIC-equivalent values obtained at the succesive 2-fold dilution of the sample are 100-10 µg/ml).
Regarding `CC(Oc1cccc(Oc2ccc(C(F)(F)F)cc2Cl)c1)C(=O)C(C#N)c1cccc(C(F)(F)F)c1` (stereo not drawn) [Compound No. 106, 4-[3-(2-chloro-4-trifluoromethylphenoxy)phenoxy]-3-oxo-2-(3-trifluoromethylphenyl)pentanonitrile], the MIC in test [2] was in the range of 1 to 10 µg/mL (≈ 1.89 to 18.9 µM); in test [3], 1 to 10 µg/mL (≈ 1.89 to 18.9 µM); in test [5], 1 to 10 µg/mL (≈ 1.89 to 18.9 µM); in test [6], 10 to 100 µg/mL (≈ 18.9 to 189 µM); in test [4], 10 to 100 µg/mL (≈ 18.9 to 189 µM). The IC in test [5] (Enterococcus Seriolicida HI), in test [5] (setting [7]), in test [5] (setting [8]), in test [5] (setting [9]), in test [5] (setting [10]) and in test [5] (setting [11]) was ≤10 (10-1 µg/ml) in each case. In addition, the IC in test [5] (setting [12]) was ≤10 (10-1 µg/ml); in test [5] (setting [13]), ≤10 (10-1 µg/ml); in test [5] (setting [14]) it was ≤10 (10-1 µg/ml); in test [5] (setting [15]) it was ≤10 (10-1 µg/ml); in test [6] (Pasteurella piscicida KP94-04) it was ≤100 (MIC-equivalent values obtained at the succesive 2-fold dilution of the sample are 100-10 µg/ml); in test [6] (Pasteurella piscicida KP94-05), ≤100 (MIC-equivalent values obtained at the succesive 2-fold dilution of the sample are 100-10 µg/ml). In addition, in test [6] (Pasteurella piscicida KP94-06), the IC was ≤100 (MIC-equivalent values obtained at the succesive 2-fold dilution of the sample are 100-10 µg/ml).
With `CC(Oc1cccc(Oc2ccc(C(F)(F)F)cc2Cl)c1)C(=O)C(C#N)c1ccc(Cl)cc1Cl` (stereo not drawn) [Compound No. 108, 4-[3-(2-chloro-4-trifluoromethyl-phenoxy)phenoxy)-2-(2,4-dichlorophenyl)-3-oxopentanonitrile], the MIC is 1 to 10 µg/mL (≈ 1.89 to 18.9 µM) in test [2]; 1 to 10 µg/mL (≈ 1.89 to 18.9 µM) in test [3]; 1 to 10 µg/mL (≈ 1.89 to 18.9 µM) in test [5]; 10 to 100 µg/mL (≈ 18.9 to 189 µM) in test [6]; 10 to 100 µg/mL (≈ 18.9 to 189 µM) in test [4]. The IC in test [5] (Enterococcus Seriolicida HI), in test [5] (setting [7]), in test [5] (setting [8]), in test [5] (setting [9]), in test [5] (setting [10]) and in test [5] (setting [11]) was ≤10 (10-1 µg/ml) throughout. Besides, the IC in test [5] (setting [12]) is listed as ≤10 (10-1 µg/ml); in test [5] (setting [13]), ≤10 (10-1 µg/ml); in test [5] (setting [14]) it was ≤10 (10-1 µg/ml); in test [5] (setting [15]) it was ≤10 (10-1 µg/ml); in test [6] (Pasteurella piscicida KP94-04) it was ≤100 (MIC-equivalent values obtained at the succesive 2-fold dilution of the sample are 100-10 µg/ml); in test [6] (Pasteurella piscicida KP94-05), ≤100 (MIC-equivalent values obtained at the succesive 2-fold dilution of the sample are 100-10 µg/ml). Also, the IC in test [6] (Pasteurella piscicida KP94-06) is reported as ≤100 (MIC-equivalent values obtained at the succesive 2-fold dilution of the sample are 100-10 µg/ml).
Regarding `CC(Oc1cc(Oc2ccc(C(F)(F)F)cc2Cl)ccc1[N+](=O)[O-])C(=O)C(C#N)c1ccc(Cl)cc1Cl` (stereo not drawn) [Compound No. 116, 4-[5-(2-chloro-4-trifluoromethylphenoxy)-2-nitrophenoxy]-2-(2,4-dichlorophenyl)-3-oxopentanonitrile], the MIC in test [2] was 1 to 10 µg/mL (≈ 1.74 to 17.4 µM); in test [3] it was 1 to 10 µg/mL (≈ 1.74 to 17.4 µM); in test [5], 1 to 10 µg/mL (≈ 1.74 to 17.4 µM); in test [6], 10 to 100 µg/mL (≈ 17.4 to 174 µM); in test [4], 1 to 10 µg/mL (≈ 1.74 to 17.4 µM). Further, the IC in test [5] (Enterococcus Seriolicida HI), in test [5] (setting [7]), in test [5] (setting [8]), in test [5] (setting [9]), in test [5] (setting [10]) and in test [5] (setting [11]) was ≤10 (10-1 µg/ml) in each case. Moreover, the IC in test [5] (setting [12]) is reported as ≤10 (10-1 µg/ml); in test [5] (setting [13]) it was ≤10 (10-1 µg/ml); in test [5] (setting [14]) it was ≤10 (10-1 µg/ml); in test [5] (setting [15]), ≤10 (10-1 µg/ml); in test [6] (Pasteurella piscicida KP94-04), ≤100 (MIC-equivalent values obtained at the succesive 2-fold dilution of the sample are 100-10 µg/ml); in test [6] (Pasteurella piscicida KP94-05), ≤100 (MIC-equivalent values obtained at the succesive 2-fold dilution of the sample are 100-10 µg/ml). The IC in test [6] (Pasteurella piscicida KP94-06) is on record as ≤100 (MIC-equivalent values obtained at the succesive 2-fold dilution of the sample are 100-10 µg/ml).
`CC(Oc1cc(Oc2ccc(C(F)(F)F)cc2Cl)ccc1[N+](=O)[O-])C(=O)C(C#N)C(=O)N1CCCC1` (stereo not drawn) [compound 134]: the MIC in test [2], in test [3], in test [5], in test [6] and in test [4] was 10 to 100 µg/mL (≈ 19 to 190 µM) each time. Besides, the IC in test [5] (Enterococcus Seriolicida HI), in test [5] (setting [7]), in test [5] (setting [8]), in test [5] (setting [9]), in test [5] (setting [10]) and in test [5] (setting [11]) was ≤100 (MIC-equivalent values obtained at the succesive 2-fold dilution of the sample are 100-10 µg/ml) in each case. Further, the IC in test [5] (setting [12]), in test [5] (setting [13]), in test [5] (setting [14]) and in test [5] (setting [15]) was ≤100 (MIC-equivalent values obtained at the succesive 2-fold dilution of the sample are 100-10 µg/ml) throughout.
On to `CC(Oc1cc(Oc2ccc(C(F)(F)F)cc2Cl)ccc1Cl)C(=O)C(C#N)C(=O)N1CCCCC1` (stereo not drawn) [compound 170], for which the MIC in test [2] is 1 to 10 µg/mL (≈ 1.89 to 18.9 µM); in test [3], 1 to 10 µg/mL (≈ 1.89 to 18.9 µM); in test [4] it was 10 to 100 µg/mL (≈ 18.9 to 189 µM).

Source of the values: patent publication EP0768085A1, “ANTIBACTERIAL AGENT” (DAIICHI PHARMACEUTICAL CO., LTD., priority 1994, dated 1996).
